Laboratory results published in US6342500B1, “Post-Amadori inhibitors of Advanced Glycation reactions” (Kansas University Medical Center, priority 1999, dated 2002).
Read-outs that look alike come from different tables or passages of the source.

Assays:
[1] = test system: conversion of Amadori compounds to post Amadori advanced glycation endproducts (bovine serum albumin glycated by ribose); test: Interrupted glycation: post-Amadori AGE formation of bovine serum albumin by ribose; format: biochemical
Protocol: FIG. 2 is graph depicting the effect of dipyridoxylamine (BST-4500) on post-Amadori AGE formation during interrupted glycation of bovine serum albumin by ribose. Modification with ribose was done at 37° C. in 0.2 M phosphate buffer of pH 7.5 containing 0.02% sodium azide. The solutions were kept in capped tubes and opened only to remove timed aliquots that were immediately frozen for later carrying out the various analyses. “Interrupted glycation” experiments were carried out by first incubating protein with the ribose at 37° C. for 8 or 24 h, followed by immediate and extensive dialysis against frequent cold buffer changes at 4° C. The samples were then reincubated by quickly warming to 37° C. in the absence of external ribose. Aliquots were taken and frozen at various intervals for later analysis.
The interrupted glycation method for following post-Amadori kinetics of AGE formation allows for the rapid quantitative study of “late” stages of the glycation reaction. Importantly, this method allows for inhibition studies that are free of pathways of AGE formation which arise from glycoxidative products of free sugar or Schiff base (Namiki pathway).
In comparison, in a similar experiment, pyridoxamine inhibited the conversion of Amadori compounds to post Amadori advanced glycation endproducts with a half-maximal inhibitory concentration of approximately 3 mM. Thus, the post-Amadori-inhibitory activity of dipyridoxylaminc is approximately 750-fold greater than that of pyridoxamine.

[2] = test system: normal human epidermal keratinocytes; test: Neutral red uptake bioassay using normal human epidermal keratinocytes; format: cell-based; conditions: for HuLC50: preliminarily estimated concentration for half-maximal toxicity, neutral red uptake, normal human epidermal keratinocytes
Protocol: A neutral red uptake bioassay using normal human epidermal keratinocytes was then conducted to preliminarily estimate the toxicity (HuLC50) of dipyridoxylamine relative to pyridoxamine. The bioassay was conducted according to standard protocols. (Borenfreund et al., J. Tissue Culture Methods 9:7-9, 1984; Heimann, et al., Cancer Res. 43:4856-4862, 1983; Shopsis et al., in “Alternative Methods in Toxicology,” Vol. 6, AM Goldberg (Ed), Mary Ann Liebert, Inc., N.Y., p. 253-263, 1988) The preliminarily estimated concentration for half-maximal toxicity was then divided by the half maximal inhibition of post-Amadori AGE formation to derive a therapeutic index ratio.

[3] = half maximal inhibition of post-Amadori AGE formation, read-out: IC50

Row | Structure (SMILES) | IC50 [1, 3] | IC50 ([1]; interrupted glycation of BSA by ribose, 37° C., 0.2 M phosphate buffer pH 7.5, read-out: half-maximal inhibitory concentration for inhibiting the conversion of Amadori compounds to post Amadori advanced glycation endproducts) | post-Amadori-inhibitory activity relative to pyridoxamine ([1]; ratio of half-maximal inhibitory concentrations, versus pyridoxamine) | toxicity relative to pyridoxamine ([2]; neutral red uptake bioassay, in words) | HuLC50 [2] | IC50 ([1]; in a similar experiment (interrupted glycation), read-out: half-maximal inhibitory concentration for inhibiting the conversion of Amadori compounds to post Amadori advanced glycation endproducts)
1 | Cc1ncc(CO)c(CNCc2c(CO)cnc(C)c2O)c1O [Dipyridoxylamine] | 0.004 mM | ~0.004 mM | approximately 750 fold | mildly more toxic than pyridoxamine | 1.8 mM | 
2 | Cc1ncc(CO)c(CN)c1O [Pyridoxamine, pyridoxamine, reference compound] | 3 mM |  |  |  | 16.7 mM | ~3 mM
